# System: TMD-8 cell p-IF4E
# Test: p-eIF4E Signaling Cellular Assay (CisBio HTRF) in TMD-8 cells
# Assay type: cell-based
# Details: Homo sapiens, TMD8, 40 min, 40 min treatment
# Experimental: p-eIF4E Signaling Cellular Assay. Phosphorylated eIF4E is assayed using the CisBio p-Eif4E HTRF assay kit. Reagents and equipment used in the assay are listed below, followed by the protocol.
# Cell medium: RPMI 1640+10% FBS+1*PS, TMD-8 were cultured as recommended and assayed in exponential growth phase. • a) Plate 30 μL of cells in 384 white assay plate in appropriate medium and proper cell density (20 k/well) based on Optimization at 37° C. under 5% CO2 atmosphere • b) Dispense 90 nL of compounds diluted in DMSO and treat for 40 min at 37° C. under 5% CO2 atmosphere • c) Remove cell supernatant by flicking the plate • d) Add 16 μL of supplemented lysis buffer (1×) for 30 minutes at RT under shaking • e) Add 4 μL of premixed antibody solutions prepared in the detection buffer. Cover the plate with a plate sealer. Incubate 0/N at RT • f) Read the fluorescence emission at 665 nm and 620 nm on Envision • g) Data analysis • (1) Ratio […] signal is calculated for each well • (2) % Inhibition is calculated as follow:
# % inhibition=100−(Signalcmpd-SignalAve_PC)/(SignalAve_VC-SignalAve_PC)×100. • (3) Calculate IC50 and Plot effect-dose curve of cmpds:
# Calculate IC50 by fitting % Inhibition values and log of compound concentrations to nonlinear regression (dose response−variable slope) with Graphpad 8.0.
# Y=Bottom+(Top−Bottom)/(1+10^((Log IC50−X)*Hill Slope)) • X: log of Inhibitor concentration; Y: % Inhibition.
row,SMILES,IC50 [nM]
1,"Cc1cc(Nc2cc(N[C@@H]3COC[C@H]3O)ncn2)[n+]([O-])c2c1C(=O)NC21CCCCC1 (relative stereo) [Compound XXIX-AE, 2′-((6-((trans-4-hydroxytetrahydrofuran-3-yl)amino)pyrimidin-4-yl)amino)-4′-methyl-5′-oxo-5′,6′-dihydrospiro[cyclohexane-1,7′-pyrrolo[3,4-b]pyridine] 1′-oxide]",10 to 100

# Biological target: MNK2 (Homo sapiens (Human), UniProt Q9HBH9)
# Sequence (Q9HBH9 whole entry): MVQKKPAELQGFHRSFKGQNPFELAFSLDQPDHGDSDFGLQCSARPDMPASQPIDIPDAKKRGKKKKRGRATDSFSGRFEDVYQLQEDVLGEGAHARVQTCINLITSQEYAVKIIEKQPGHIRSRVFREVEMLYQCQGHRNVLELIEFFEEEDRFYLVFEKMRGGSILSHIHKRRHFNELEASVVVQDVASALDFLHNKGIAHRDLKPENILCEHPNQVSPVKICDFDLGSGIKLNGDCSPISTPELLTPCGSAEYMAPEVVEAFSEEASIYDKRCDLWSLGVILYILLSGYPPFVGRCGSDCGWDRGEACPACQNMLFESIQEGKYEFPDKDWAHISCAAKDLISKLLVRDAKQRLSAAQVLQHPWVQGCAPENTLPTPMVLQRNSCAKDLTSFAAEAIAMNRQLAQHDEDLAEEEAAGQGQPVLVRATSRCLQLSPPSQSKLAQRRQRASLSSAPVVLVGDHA
# Test: MNK Biochemical Enzymatic Assay (ADP-Glo), MNK2 binding assay
# Details: not given
# Procedure, shortened: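 Human MNK1 or MNK2 was preincubated with a 10-point, 1:3 serial dilution of compound for 15 min at 25 °C. Substrate was then added and the reaction ran 60 min at 25 °C. ADP formed was read by ADP-Glo luminescence, and IC50 came from non-linear regression.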
row,SMILES,IC50 [nM]
1,"Cc1cc(Nc2cc(N[C@@H]3COC[C@H]3O)ncn2)[n+]([O-])c2c1C(=O)NC21CCCCC1 (relative stereo) [Compound XXIX-AE, 2′-((6-((trans-4-hydroxytetrahydrofuran-3-yl)amino)pyrimidin-4-yl)amino)-4′-methyl-5′-oxo-5′,6′-dihydrospiro[cyclohexane-1,7′-pyrrolo[3,4-b]pyridine] 1′-oxide]",0.1 to 10
2,"Cc1cc(Nc2cc(NC3=NC(C)(C)CO3)ncn2)[n+]([O-])c2c1C(=O)NC21CCCCC1 [Compound XXIX-M, 2′-((6-((4,4-dimethyl-4,5-dihydrooxazol-2-yl)amino)pyrimidin-4-yl)amino)-4′-methyl-5′-oxo-5′,6′-dihydrospiro[cyclohexane-1,7′-pyrrolo[3,4-b]pyridine] 1′-oxide]",100 to 1000
3,"CC(=O)N(C)c1cccc(Nc2cc(Nc3cc(C)c4c([n+]3[O-])C3(CCCCC3)NC4=O)ncn2)c1 [Compound XXIX-N, 4′-methyl-2′-((6-((3-(N-methylacetamido)phenyl)amino)pyrimidin-4-yl)amino)-5′-oxo-5′,6′-dihydrospiro[cyclohexane-1,7′-pyrrolo[3,4-b]pyridine] 1′-oxide]",10 to 100
4,"Cc1cc(Nc2ncnc3[nH]cnc23)[n+]([O-])c2c1C(=O)NC21CCCCC1 [Compound XXIX-O, 2′-((9H-purin-6-yl)amino)-4′-methyl-5′-oxo-5′,6′-dihydrospiro[cyclohexane-1,7′-pyrrolo[3,4-b]pyridine] 1′-oxide]",10 to 100
5,"Cc1cc(Nc2cc(NCC3CCCO3)ncn2)[n+]([O-])c2c1C(=O)NC21CCCCC1 (centres unmarked) [Compound XXIX-P, 4′-methyl-5′-oxo-2′-((6-(((tetrahydrofuran-2-yl)methyl)amino)pyrimidin-4-yl)amino)-5′,6′-dihydrospiro[cyclohexane-1,7′-pyrrolo[3,4-b]pyridine] 1′-oxide]",10 to 100
6,"Cc1cc(Nc2cc(NC3CNC3)ncn2)[n+]([O-])c2c1C(=O)NC21CCCCC1 [Compound XXIX-Q, 2′-((6-(azetidin-3-ylamino)pyrimidin-4-yl)amino)-4′-methyl-5′-oxo-5′,6′-dihydrospiro[cyclohexane-1,7′-pyrrolo[3,4-b]pyridine] 1′-oxide]",10 to 100
7,"Cc1cc(Nc2cc(NC3CCOCC3)ncn2)[n+]([O-])c2c1C(=O)NC21CCCCC1 [Compound XXIX-R, 4′-methyl-5′-oxo-2′-((6-((tetrahydro-2H-pyran-4-yl)amino)pyrimidin-4-yl)amino)-5′,6′-dihydrospiro[cyclohexane-1,7′-pyrrolo[3,4-b]pyridine] 1′-oxide]",100 to 1000
8,"Cc1cc(Nc2cc(N[C@H]3CCNC3)ncn2)[n+]([O-])c2c1C(=O)NC21CCCCC1 [Compound XXIX-S, (S)-4′-methyl-5′-oxo-2′-((6-(pyrrolidin-3-ylamino)pyrimidin-4-yl)amino)-5′,6′-dihydrospiro[cyclohexane-1,7′-pyrrolo[3,4-b]pyridine] 1′-oxide]",10 to 100
9,"Cc1cc(Nc2cc(N[C@H]3C[C@H](O)C3)ncn2)[n+]([O-])c2c1C(=O)NC21CCCCC1 [Compound XXIX-T, trans-2′-((6-(((1r,3r)-3-hydroxycyclobutyl)amino)pyrimidin-4-yl)amino)-4′-methyl-5′-oxo-5′,6′-dihydrospiro[cyclohexane-1,7′-pyrrolo[3,4-b]pyridine] 1′-oxide]",10 to 100
10,"Cc1cc(Nc2cc(NC(=O)N(C)C)ncn2)[n+]([O-])c2c1C(=O)NC21CCCCC1 [Compound XXIX-U, 2′-((6-(3,3-dimethylureido)pyrimidin-4-yl)amino)-4′-methyl-5′-oxo-5′,6′-dihydrospiro[cyclohexane-1,7′-pyrrolo[3,4-b]pyridine] 1′-oxide]",10 to 100
11,"Cc1cc(Nc2cc(N[C@H]3CCC[C@@H]3O)ncn2)[n+]([O-])c2c1C(=O)NC21CCCCC1 [Compound XXIX-V, 2′-((6-(((1S,2S)-2-hydroxycyclopentyl)amino)pyrimidin-4-yl)amino)-4′-methyl-5′-oxo-5′,6′-dihydrospiro[cyclohexane-1,7′-pyrrolo[3,4-b]pyridine] 1′-oxide]",10 to 100
12,"Cc1cc(Nc2cc(N[C@@H]3CCC[C@@H]3O)ncn2)[n+]([O-])c2c1C(=O)NC21CCCCC1 [Compound XXIX-W, 2′-((6-(((1R,2S)-2-hydroxycyclopentyl)amino)pyrimidin-4-yl)amino)-4′-methyl-5′-oxo-5′,6′-dihydrospiro[cyclohexane-1,7′-pyrrolo[3,4-b]pyridine] 1′-oxide]",100 to 1000
13,"Cc1cc(Nc2cc(N[C@@H]3CCC[C@H]3O)ncn2)[n+]([O-])c2c1C(=O)NC21CCCCC1 [Compound XXIX-X, 2′-((6-(((1R,2R)-2-hydroxycyclopentyl)amino)pyrimidin-4-yl)amino)-4′-methyl-5′-oxo-5′,6′-dihydrospiro[cyclohexane-1,7′-pyrrolo[3,4-b]pyridine] 1′-oxide]",10 to 100
14,"CCOC(=O)C1CCc2c(sc3ncnc(Nc4cc5c(s4)C(=O)NC54CCCCC4)c23)C1 (centres unmarked) [Compound XXV-5, Ethyl 4-((6′-oxo-5′,6′-dihydrospiro[cyclohexane-1,4′-thieno[2,3-c]pyrrol]-2′-yl)amino)-5,6,7,8-tetrahydrobenzo[4,5]thieno[2,3-d]pyrimidine-7-carboxylate]",100 to 1000
15,"O=C1NC2(CCCCC2)c2cc(Nc3ncnc4sc5c(c34)CCC(C(=O)O)C5)sc21 (centres unmarked) [Compound XXV-6, 4-((6′-Oxo-5′,6′-dihydrospiro[cyclohexane-1,4′-thieno[2,3-c]pyrrol]-2′-yl)amino)-5,6,7,8-tetrahydrobenzo[4,5]thieno[2,3-d]pyrimidine-7-carboxylic acid]",10 to 100
16,"C[C@@H]1CN(C(=O)C2CCc3c(sc4ncnc(Nc5cc6c(s5)C(=O)NC65CCCCC5)c34)C2)CCN1C (stereo partly drawn) [Compound XXV-A, 2′-((7-((R)-3,4-Dimethylpiperazine-1-carbonyl)-5,6,7,8-tetrahydrobenzo[4,5]thieno[2,3-d]pyrimidin-4-yl)amino)spiro[cyclohexane-1,4′-thieno[2,3-c]pyrrol]-6′(5′H)-one]",10 to 100
17,"CN(C)C(=O)C1CCc2c(sc3ncnc(Nc4cc5c(s4)C(=O)NC54CCCCC4)c23)C1 (centres unmarked) [Compound XXV-B, N,N-Dimethyl-4-((6′-oxo-5′,6′-dihydrospiro[cyclohexane-1,4′-thieno[2,3-c]pyrrol]-2′-yl)amino)-5,6,7,8-tetrahydrobenzo[4,5]thieno[2,3-d]pyrimidine-7-carboxamide]",10 to 100
18,"O=C1NC2(CCCCC2)c2cc(Nc3ncnc4sc5c(c34)CCC(C(=O)N3CCC3)C5)sc21 (centres unmarked) [Compound XXV-D, 2′-((7-(azetidine-1-carbonyl)-5,6,7,8-tetrahydrobenzo[4,5]thieno[2,3-d]pyrimidin-4-yl)amino)spiro[cyclohexane-1,4′-thieno[2,3-c]pyrrol]-6′(5′H)-one]",10 to 100
19,"O=C1NC2(CCCCC2)c2nc(Nc3cc(N[C@H]4CCCOC4)ncn3)sc21 [Compound XXVIII-D, (S)-2′-((6-((tetrahydro-2H-pyran-3-yl)amino)pyrimidin-4-yl)amino)spiro[cyclohexane-1,4′-pyrrolo[3,4-d]thiazol]-6′(5′H)-one]",10 to 100
20,"CC1(C)COC(Nc2cc(Nc3nc4c(s3)C(=O)NC43CCCCC3)ncn2)=N1 [Compound XXVIII-E, 2′-((6-((4,4-dimethyl-4,5-dihydrooxazol-2-yl)amino)pyrimidin-4-yl)amino)spiro[cyclohexane-1,4′-pyrrolo[3,4-d]thiazol]-6′(5′H)-one]",> 1000
21,"COc1c(Nc2nc3c(s2)C(=O)NC32CCCCC2)ncnc1N[C@H]1CCOC1 [Compound XXVIII-F, (S)-2′-((5-methoxy-6-((tetrahydrofuran-3-yl)amino)pyrimidin-4-yl)amino)spiro[cyclohexane-1,4′-pyrrolo[3,4-d]thiazol]-6′(5′H)-one]",> 1000
22,"CC(=O)N(C)c1cccc(Nc2cc(Nc3nc4c(s3)C(=O)NC43CCCCC3)ncn2)c1 [Compound XXVIII-I, N-methyl-N-(3-((6-((6′-oxo-5′,6′-dihydrospiro[cyclohexane-1,4′-pyrrolo[3,4-d]thiazol]-2′-yl)amino)pyrimidin-4-yl)amino)phenyl)acetamide]",10 to 100
23,"O=C1NC2(CCCCC2)c2nc(Nc3ccnc(Nc4ccccn4)c3)sc21 [Compound XXVIII-J, 2′-((2-(pyridin-2-ylamino)pyridin-4-yl)amino)spiro[cyclohexane-1,4′-pyrrolo[3,4-d]thiazol]-6′(5′H)-one]",10 to 100
24,"O=C1NC2(CCCCC2)c2nc(Nc3cc(N[C@H]4C[C@H](O)C4)ncn3)sc21 [Compound XXVIII-N, Trans-2′-((6-(((1r,3r)-3-hydroxycyclobutyl)amino)pyrimidin-4-yl)amino)spiro[cyclohexane-1,4′-pyrrolo[3,4-d]thiazol]-6′(5′H)-one]",10 to 100
25,"O=C1NC2(CCCCC2)c2cc(Nc3ncnc4cccnc34)sc21 [Compound XXX, 2′-(pyrido[3,2-d]pyrimidin-4-ylamino)spiro[cyclohexane-1,4′-thieno[2,3-c]pyrrol]-6′(5′H)-one]",10 to 100

# Source: patent publication US20240092799A1, “MNK INHIBITORS” (Hepagene Therapeutics (HK) Limited, priority 2020, published 2024)
